Assay results: US20230226231A1, “CONJUGATED AND LABELLED APELIN, PREPARATION AND USES THEREOF” (UNIVERSITE D'AIX MARSEILLE, priority 2020, published 2023)
One block for each compound: values may come before it.

Experiments:
ischemic limb = experiment: MicroPET imaging in mouse model of hindlimb ischemia; type: in vivo, mice
Protocol: Unilateral hindlimb ischemia was performed on 9-week-old male Swiss mice (Janvier Labs) after femoral artery excision under 2% isoflurane anesthesia. LASER Doppler perfusion imaging (Perimed, Craponne, France) was used to assess revascularization from day 0 to day 21 after surgery. Perfusion results are expressed as a ratio of ischemic to non-ischemic limb blood flow. Hindlimb ischemic damage was quantified on Days 1, 3, 7, 10, 13 and 21.
(§1) On hindlimb ischemia mouse model (n=8) and Matrigel mouse model (n=7) on day 1, 3, 7, 10, 13 and 21 post-surgery, mice were IV injected with 5-10 MBq of ^68Ga-NODAGA-Apelin13(F13A) under 2% isoflurane anesthesia.
(§2) PET images were acquired 60 min after IV injection on a Mediso Nanoscan PET/CT under 2% isoflurane anesthesia. On hindlimb ischemia mouse model and on day 1, 3, 7, 10, 13 and 21 post-surgery, mice were IV injected with 5-10 MBq of [^68Ga]Ga-NODAGA-RGD2 injection under 2% isoflurane anesthesia. PET images were acquired 60 min after IV injection on a Mediso Nanoscan PET/CT under 2% isoflurane anesthesia.
(§3) Quantitative region-of-interest (ROI) analysis of the PET images was performed on attenuation- and decay-corrected PET images using InVicro—VivoQuant software and tissue uptake values are presented as an ischemic muscle to contralateral muscle ratio and as a percentage of the injected dose per gram of tissue (% ID/g) which was determined by decay correction for each sample normalized to a standard of known weight, which was representative of the injected dose.

[1] = Stability of radiolabelled tracer in human serum; type: in vitro ADME
Protocol: Determination of radiochemical purity was done by radio-thin-layer chromatography (ITLC-SG) and was performed using a Ray-test miniGITA radio-TLC scanner detector (Straubenhardt, Ge) (eluents, 1:1 [v/v] mixture of 1M aqueous ammonium acetate solution and methanol and also in Trisodium Citrate 0,1M). Evaluation of ^68Ga-NODAGA-Apelin13(F13A) stability was performed in human serum at 60 and 120 min after radiosynthesis.

[2] = MicroPET biodistribution study in healthy mice; type: in vivo; details: IV injection, up to 2 h
Protocol: For biodistribution study in healthy mice (n=3), images were continuously acquired just after ^68Ga-NODAGA-Apelin13(F13A) IV injection with 5-6 MBq and recorded up to 2 h post injection on a Mediso NanoPET/CT under 2% isoflurane anesthesia.
as §3

[3] = tested on: Human colon adenocarcinoma xenografts (T84 cells); experiment: MicroPET imaging in ectopic mouse model of human colon adenocarcinoma, baseline and blocking; type: in vivo, mice
Protocol: Human colon adenocarcinoma xenografts were established by subcutaneous injections of 1×10^6 T84 cells into 6-week-old male Swiss nude mice (Charles River) under 2% isoflurane anesthesia.
PET images were acquired 1 h after IV injection on a Mediso NanoPET/CT under 2% isoflurane anesthesia.

Matrigel plug = experiment: MicroPET imaging in Matrigel mouse model; type: in vivo, mice
Protocol: These mice were also subcutaneously implanted with Matrigel (Dutscher) supplemented with 10% fetal bovine serum under 2% isoflurane anesthesia.
as §1, §2, §3

APJ = molecular target: T1, APJ (Homo sapiens, UniProt P35414); experiment: Autoradiography with blocking strategy on T84 cells; type: cell-based; details: 100-fold excess of unconjugated Apelin13(F13A)
T1 construct: host or cells: T84 human colon adenocarcinoma cells
T1 sequence (P35414 1-380): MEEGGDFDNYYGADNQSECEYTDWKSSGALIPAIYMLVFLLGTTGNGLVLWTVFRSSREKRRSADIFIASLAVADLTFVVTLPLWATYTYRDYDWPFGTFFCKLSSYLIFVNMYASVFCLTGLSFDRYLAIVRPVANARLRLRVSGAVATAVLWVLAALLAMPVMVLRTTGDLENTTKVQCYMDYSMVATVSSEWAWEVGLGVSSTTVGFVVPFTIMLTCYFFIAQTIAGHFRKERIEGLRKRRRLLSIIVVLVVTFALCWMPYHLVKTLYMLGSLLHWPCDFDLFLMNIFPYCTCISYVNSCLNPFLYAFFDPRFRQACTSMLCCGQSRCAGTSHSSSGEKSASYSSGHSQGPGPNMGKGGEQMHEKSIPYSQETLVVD
Protocol: A blocking strategy was performed on cells expressing the highest level of APJ. This strategy consists in adding a large excess (100-fold) of unconjugated peptide (Apelin13(F13A)) before adding inventors' product of interest. Unspecific tracer was eliminated by several washes. The remaining activity, considered as specifically bound to the target, was evaluated by autoradiography.
T84 cell line (EuroBioDev) was cultivated in DMEM-F12/Glutamax medium complemented with 10% fetal bovine serum decomplemented and 1% antimycotic-antibiotic mix. Cell lines were maintained in a humidified 5% CO2 incubator at 37° C.

APJ receptor, T84 cells = molecular target: T2, APJ receptor, T84 cells (Homo sapiens, UniProt P35414); experiment: In vitro internalization study in T84 cells; type: cell-based
T2 construct: host or cells: T84 human colon adenocarcinoma cells
T2 sequence (P35414 1-380): T1 sequence (P35414 1-380)
Protocol: (§4) T84 cells were cultured as described in saturation binding experiments above.
Three minutes before the end of the incubation time, internalization was stopped on ice and the supernatant was removed. Internalization was then stopped by eliminating the supernatant and each well was washed with 3×250 μL of ice-cold PBS. The membrane-bound fraction was retrieved in 2×250 μL sodium acetate buffer (20 mM, pH 5) for 5 min. Finally, cells were treated with 500 μL of NaOH (1 M). The radioactivity of the membrane-bound fraction and the internalized fraction was measured in a gamma counter. The experiment was performed twice. To also verify receptor specificity, blocking experiments were performed by using 1 μM of apelin-13.

T84 cells = experiment: In vitro efflux study on T84 cells; type: cell-based, human
Protocol: as §4
Three minutes before the end of the incubation time, internalization was stopped on ice and the supernatant was removed. Each well was washed with 1 mL of ice-cold PBS. The membrane-bound fraction was retrieved in 2 mL sodium acetate buffer (20 mM, pH 5) for 2 min, each well was rinsed a second time with 1 mL ice-cold PBS and fresh culture medium was added. At each time point (10, 30, 60 and 120 minutes), the efflux was stopped by collecting the medium and washing cells twice with ice-cold PBS. Finally, cells were treated with NaOH (1 M). The radioactivity of the collected culture medium supernatant, the PBS wash fractions, and the total internalized fraction was measured in a gamma counter. The experiment was performed twice.

[4] = Hydrophilicity, water-octanol partition/distribution coefficient method; type: physicochemical; details: 1-octanol / phosphate-buffered saline pH 7.4
Protocol: Hydrophilicity of [^67Ga]Ga-AP747 was assessed by the water-octanol partition/distribution coefficient method. In a centrifuge tube, 500 μL of 1-octanol was added to 500 μL of phosphate-buffered saline (pH 7.4) containing the radiolabeled peptide (50 kBq). After equilibrium, the solution was vigorously stirred for 5 min at room temperature and subsequently centrifuged (4000 rpm, 5 min) to yield two immiscible layers. Aliquots of 100 μL were taken from each layer and the radioactivity in the samples was determined by a gamma counter (Perkin Elmer, Waltham, Mass., USA).

[5] = PET signal ratio on day 7, corrected with non-ischemic limb

Compound: [^68Ga]Ga-NODAGA-Apelin13(F13A): Apelin-13(F13A) peptide (SEQ ID NO: 5) conjugated to chelator NODAGA and radiolabelled with gallium-68; PET tracer of APJ
relation of PET signal in ischemic limb to day-input function (LASER Doppler Day7/Day0) (ischemic limb; PET signal on day 7, corrected with non-ischemic limb): not linked
correlation of PET signal in ischemic limb with LASER-Doppler signal at day of surgery (ischemic limb; [5]): significantly negatively correlated
relation of PET signal in ischemic limb to reperfusion (LASER-Doppler Day 21/Day 0) (ischemic limb; [5]): more important when reperfusion is longer
PET signal in ischemic limb compared with [68Ga]Ga-NODAGA-RGD2 (ischemic limb; at peak): notably better
day of peak PET signal in ischemic limb (ischemic limb; ischemic limb corrected by non-ischemic limb, post-surgery): 7 days
radiochemical purity after incubation in human serum ([1]; human serum, until two hours post-incubation, n=3): didn't lead to significant tampering
stability in serum ([1]; serum): up to 2 hours
excretion and organ accumulation (PET signal quantification in organs) ([2]; n=3): fast and mainly urinary excretion without noticeable accumulation in liver, lungs or brain
excretion and organ accumulation (PET signal quantification in organs) ([2]; n=3, listed as (F13A)Apelin-NODAGA-^68Ga): Rapid urinary and hepatic elimination
partial blocking of PET signal in in vivo blocking experiments ([3]; pre-saturation with cold Apelin13(F13A), angiogenic and tumoral models): about 50%
PET signal in Matrigel compared with [68Ga]Ga-NODAGA-RGD2, globally over experiment period (Matrigel plug; day 1 to day 21): significantly superior
accumulation in Matrigel plug compared with [68Ga]Ga-NODAGA-RGD2 (Matrigel plug; day 10, day 13 and day 21, PET 60 min after IV injection): significantly higher

Compound: AP747: AP747 corresponds to NODAGA-Apelin13(F13A); used radiolabelled in the autoradiography
remaining activity recorded by autoradiography in blocking condition compared to classic conditions (APJ): significantly reduced

internalized fraction of the cell associated radioactivity (maximum) (APJ receptor, T84 cells; 37° C., at 60 min): 79.7±7.3%
receptor specific membrane-bound fraction (APJ receptor, T84 cells; at any time point (10, 30, 60 min)): < 5%
Compound: [^67Ga]Ga-AP747: NODAGA-Apelin13(F13A) radiolabelled with gallium-67, used for in vitro binding, internalization and efflux studies
efflux: fraction of the total binding externalized (T84 cells; 10 minutes post-internalization): 66.7±1.7%
efflux: fraction of the total binding externalized (T84 cells; at 2 h): 81.2±2.9%
log D7.4 [4]: −3.03±0.02

Compound: CSCC[C@H](NC(=O)[C@@H]1CCCN1C(=O)CNC(=O)[C@H](CCCCN)NC(=O)[C@H](Cc1c[nH]cn1)NC(=O)[C@H](CO)NC(=O)[C@H](CC(C)C)NC(=O)[C@H](CCCNC(=N)N)NC(=O)[C@@H]1CCCN1C(=O)[C@H](CCCNC(=N)N)NC(=O)[C@@H](N)CCC(N)=O)C(=O)N1CCC[C@H]1C(=O)N[C@@H](C)C(=O)O [Apelin13(F13A), reference compound]
tolerance of cold peptide in in vivo blocking experiments ([3]; due to cardiovascular effects of Apelin): bad tolerance
